# Results as given in US10189840B2, “Substituted tricyclic heterocyclic compounds” (BRISTOL-MYERS SQUIBB COMPANY, priority 2015, dated 2019).
# Biological target: TNFα (Homo sapiens (Human), UniProt P01375)
# Assay: TNF induced HEK-Blue assay
# Assay type: cell-based
# Conditions: TNFα 0.5 ng/ml; HEK-Blue-CD40L cells, NF-κB-driven secreted alkaline phosphatase reporter; 18 h
# Experimental: Test compounds serially diluted in DMSO were plated in an assay plate (Labcyte, Cat. #LP-0200) at final concentrations ranging from 0.004 μM to 25 μM. TNFα (final concentration 0.5 ng/ml) or CD40L (final concentration 30 ng/ml) in assay buffer [DMEM, 4.5 g/l glucose (Gibco, Cat. 21063-029), 10% FBS (Sigma, F4135), 1% Penicillin-Streptomycin (Gibco, Cat. 15140-122), 1% Anti-Anti (Gibco, Cat. 15240-112) and 2 mM L-glutamine (Gibco, Cat. 25030-081)] was then added to the assay plate. After a 30 minute pre-incubation at 37° C. and 5% CO2, HEK-Blue-CD40L cells (InvivoGen, Cat. Code hkb-cd40) containing a NF-κB-driven secreted alkaline phosphatase reporter gene were seeded into the assay plate at a density of 20,000 cells per well. This plate was then incubated for 18 h at 37° C. and 5% CO2. Secreted alkaline phosphatase expression was measured using QUANTI-Blue (InvivoGen, Cat. Code rep-qb1) according to manufacturer's specifications and the assay plate was read on a PerkinElmer Envision at 620 nm.
# Inhibition data for the test compound over a range of concentrations was plotted as percentage inhibition of the test compound (100%=maximum inhibition). IC50 values were determined after correcting for background [(sample read−mean of low control)/(mean of high control−mean of low control)] where by the low control is DMSO without stimulation and high control is DMSO with stimulation. The IC50 is defined as the concentration of test compound which produces 50% inhibition and was quantified using the 4 parameter logistic equation to fit the data.
# Table 5 lists the IC50 values measured in the TNF induced HEK-Blue assay for Examples 1 to 40 of this invention.
# TNFα, sequence (P01375 77-233): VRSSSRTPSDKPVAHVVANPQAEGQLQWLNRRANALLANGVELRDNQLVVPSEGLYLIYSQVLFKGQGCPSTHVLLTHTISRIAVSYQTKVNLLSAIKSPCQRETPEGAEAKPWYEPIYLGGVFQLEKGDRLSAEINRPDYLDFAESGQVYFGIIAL
row,IC50,SMILES
1,< 1 µM,"CC(C)(O)c1ccc(-c2ccc3nc4n(c3n2)C(c2c(F)cccc2C(F)(F)F)CC4F)cc1 (stereo not drawn) [Example 23 (e1), 2-(4-(6-fluoro-8-(2-fluoro-6-(trifluoromethyl)phenyl)-7,8-dihydro-6H-pyrrolo[2′,1′:2,3]imidazo[4,5-b]pyridin-2-yl)phenyl)propan-2-ol]"
2,1 to 10 µM,"CC(C)(O)c1ccc(-c2ccc3nc4n(c3n2)C(c2ccccc2C2CC2)CC4)cc1 (single isomer, unassigned) [Example 33 (e2), 2-(4-(8-(2-cyclopropylphenyl)-7,8-dihydro-6H-pyrrolo[2′,1′:2,3]imidazo[4,5-b]pyridin-2-yl)phenyl)propan-2-ol]"
3,1 to 10 µM,"CC(C)(O)c1ccc(-c2ccc3nc4n(c3n2)C(c2cc(F)ccc2C(F)(F)F)CC4F)cc1 (stereo not drawn) [Example 24 (e3), 2-(4-(6-fluoro-8-(5-fluoro-2-(trifluoromethyl)phenyl)-7,8-dihydro-6H-yrrolo[2′,1′:2,3]imidazo[4,5-b]pyridin-2-yl)phenyl)propan-2-ol]"
4,10 to 25 µM,"COc1ccccc1C1CC(O)c2nc3ccc(-c4ccc(C(C)(C)O)cc4)nc3n21 (single isomer, unassigned) [Example 12 (e3), 2-(4-(2-hydroxypropan-2-yl)phenyl)-8-(2-methoxyphenyl)-7,8-dihydro-6H-pyrrolo[2′,1′:2,3]imidazo[4,5-b]pyridin-6-ol]"
5,10 to 25 µM,"CC(C)(O)c1ccc(-c2ccc3nc4n(c3n2)C(c2ccccc2OC(F)F)CC4F)cc1 (single isomer, unassigned) [Example 15 (e2), 2-(4-(8-(2-(difluoromethoxy)phenyl)-6-fluoro-7,8-dihydro-6H-pyrrolo[2′,1′:2,3]imidazo[4,5-b]pyridin-2-yl)phenyl)propan-2-ol]"
6,1 to 10 µM,"CC(C)(O)c1ccc(-c2ccc3nc4n(c3n2)C(c2ccccc2C(F)(F)F)CC4O)cc1 (single isomer, unassigned) [Example 1 (e3), 2-(4-(2-Hydroxypropan-2-yl)phenyl)-8-(2-(trifluoromethyl)phenyl)-7,8-dihydro-6H-pyrrolo[2′,1′:2,3]imidazo[4,5-b]pyridin-6-ol]"
7,1 to 10 µM,"Cc1ccc(C)c([C@H]2CCc3nc4ccc(-c5ccc(N6CCN(C)CC6)cc5)nc4n32)c1 [Example 38, (R)-8-(2,5-dimethylphenyl)-2-(4-(4-methylpiperazin-1-yl)phenyl)-7,8-dihydro-6H-pyrrolo[2′,1′:2,3]imidazo[4,5-b]pyridine]"
8,1 to 10 µM,"CC(C)(O)c1ccc(-c2ccc3nc4n(c3n2)C(c2ccccc2OC(F)(F)F)CC4F)cc1 (stereo not drawn) [Example 22 (e3), 2-(4-(6-fluoro-8-(2-(trifluoromethoxy)phenyl)-7,8-dihydro-6H-pyrrolo[2′,1′:2,3]imidazo[4,5-b]pyridin-2-yl)phenyl)propan-2-ol]"
9,1 to 10 µM,"CC(C)(O)c1ccc(-c2ccc3nc4n(c3n2)C(c2cc(F)ccc2C(F)(F)F)CC4O)cc1 (single isomer, unassigned) [Example 13 (e3), 8-(5-fluoro-2-(trifluoromethyl)phenyl)-2-(4-(2-hydroxypropan-2-yl)phenyl)-7,8-dihydro-6H-pyrrolo[2′,1′:2,3]imidazo[4,5-b]pyridin-6-ol]"

# The remaining lines, values behind:
row,SMILES,IC50
1,"Cc1ccc(C)c([C@H]2CCc3nc4ccc(-c5cnc(C(C)(C)O)nc5)nc4n32)c1 [Example 36, (R)-2-(5-(8-(2,5-Dimethylphenyl)-7,8-dihydro-6H-pyrrolo[2′,1′:2,3]imidazo[4,5-b]pyridin-2-yl)pyrimidin-2-yl)propan-2-ol]",< 1 µM
2,"CC(C)(O)c1ccc(-c2ccc3nc4n(c3n2)C(c2ccccc2OC(F)F)CC4O)cc1 (single isomer, unassigned) [Example 2 (e1), 8-(2-(difluoromethoxy)phenyl)-2-(4-(2-hydroxypropan-2-yl)phenyl)-7,8-dihydro-6H-pyrrolo[2′,1′:2,3]imidazo[4,5-b]pyridin-6-ol]",< 1 µM
3,"CC(C)(O)c1ccc(-c2ccc3nc4n(c3n2)C(c2ccccc2C2CC2)CC4O)cc1 (single isomer, unassigned) [Example 9 (e4), 8-(2-cyclopropylphenyl)-2-(4-(2-hydroxypropan-2-yl)phenyl)-7,8-dihydro-6H-pyrrolo[2′,1′:2,3]imidazo[4,5-b]pyridin-6-ol]",1 to 10 µM
4,"CC(C)(O)c1ccc(-c2ccc3nc4n(c3n2)C(c2ccccc2OC(F)(F)F)CC4F)cc1 (single isomer, unassigned) [Example 22 (e4), 2-(4-(6-fluoro-8-(2-(trifluoromethoxy)phenyl)-7,8-dihydro-6H-pyrrolo[2′,1′:2,3]imidazo[4,5-b]pyridin-2-yl)phenyl)propan-2-ol]",< 1 µM
5,"CC(C)(O)c1ncc(-c2ccc3nc4n(c3n2)C(c2ccccc2OC(F)F)CC4F)cn1 (stereo not drawn) [Example 16 (e3), 2-(5-(8-(2-(difluoromethoxy)phenyl)-6-fluoro-7,8-dihydro-6H-pyrrolo[2′,1′:2,3]imidazo[4,5-b]pyridin-2-yl)pyrimidin-2-yl)propan-2-ol]",10 to 25 µM
6,"CC(C)(O)c1ccc(-c2ccc3nc4n(c3n2)C(c2ccccc2OC(F)F)CC4)cc1 (single isomer, unassigned) [Example 26 (e2), 2-(4-(8-(2-(difluoromethoxy)phenyl)-7,8-dihydro-6H-pyrrolo[2′,1′:2,3]imidazo[4,5-b]pyridin-2-yl)phenyl)propan-2-ol]",10 to 25 µM
7,"CC(C)(O)c1ccc(-c2ccc3nc4n(c3n2)C(c2c(F)cccc2C(F)(F)F)CC4)cc1 (racemic) [Example 32 (rac), 2-(4-(8-(2-fluoro-6-(trifluoromethyl)phenyl)-7,8-dihydro-6H-pyrrolo[2′,1′:2,3]imidazo[4,5-b]pyridin-2-yl)phenyl)propan-2-ol]",< 1 µM
8,"CC(C)(O)c1ccc(-c2ccc3nc4n(c3n2)C(c2ccccc2OC(F)F)CC4F)cc1 (stereo not drawn) [Example 15 (DM), 2-(4-(8-(2-(difluoromethoxy)phenyl)-6-fluoro-7,8-dihydro-6H-pyrrolo[2′,1′:2,3]imidazo[4,5-b]pyridin-2-yl)phenyl)propan-2-ol]",< 1 µM
9,"FC(F)Oc1ccccc1C1CCc2nc3ccc(-c4cnc(N5CCOCC5)nc4)nc3n21 (racemic) [Example 28 (rac), 4-(5-(8-(2-(difluoromethoxy)phenyl)-7,8-dihydro-6H-pyrrolo[2′,1′:2,3]imidazo[4,5-b]pyridin-2-yl)pyrimidin-2-yl)morpholine]",< 1 µM
10,"CC(C)(O)c1ncc(-c2ccc3nc4n(c3n2)C(c2ccccc2OC(F)F)CC4F)cn1 (stereo not drawn) [Example 16 (DM), 2-(5-(8-(2-(difluoromethoxy)phenyl)-6-fluoro-7,8-dihydro-6H-pyrrolo[2′,1′:2,3]imidazo[4,5-b]pyridin-2-yl)pyrimidin-2-yl)propan-2-ol]",< 1 µM
11,"CC(C)(O)c1ccc(-c2ccc3nc4n(c3n2)C(c2c(F)cccc2C(F)(F)F)CC4)cc1 (racemic) [Example 32 (e2), 2-(4-(8-(2-fluoro-6-(trifluoromethyl)phenyl)-7,8-dihydro-6H-pyrrolo[2′,1′:2,3]imidazo[4,5-b]pyridin-2-yl)phenyl)propan-2-ol]",< 1 µM
12,"FC(F)Oc1ccccc1C1CC(F)c2nc3ccc(-c4cnc(N5CCOCC5)nc4)nc3n21 (stereo not drawn) [Example 17 (DM), 4-(5-(8-(2-(difluoromethoxy)phenyl)-6-fluoro-7,8-dihydro-6H-pyrrolo[2′,1′:2,3]imidazo[4,5-b]pyridin-2-yl)pyrimidin-2-yl)morpholine]",< 1 µM
